Source: article PMC6154719 (Molecules : A Journal of Synthetic Chemistry and Natural …, 2017)

What was measured:
Format in all cases: in vitro ADME
AKR1A [1] = biological target: T1, AKR1A (Homo sapiens, UniProt P14550); experiment: AKR1A activity in human liver subcellular fraction; conditions: 100 µM sesquiterpene, control 8.45 ± 0.90
T1 construct: Frozen liver (both rat and human) was thawed; from tissue; host or cells: human liver cytosolic fraction
T1 sequence (P14550 1-325): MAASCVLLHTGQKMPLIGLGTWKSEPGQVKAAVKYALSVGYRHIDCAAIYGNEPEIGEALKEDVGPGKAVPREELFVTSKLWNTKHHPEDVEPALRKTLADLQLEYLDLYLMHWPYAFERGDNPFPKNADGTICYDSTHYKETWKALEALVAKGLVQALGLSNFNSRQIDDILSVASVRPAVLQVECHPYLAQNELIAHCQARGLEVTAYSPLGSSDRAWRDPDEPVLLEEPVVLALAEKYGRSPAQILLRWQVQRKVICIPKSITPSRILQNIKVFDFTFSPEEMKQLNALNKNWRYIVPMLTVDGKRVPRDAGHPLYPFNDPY
Experimental: (§1) Enzyme activities were assayed in human and rat liver cytosolic and microsomal fractions. The enzyme assays (each performed in 4–8 replicates) were repeated three times (HPLC measurement of CYP activities was repeated only twice, Table 3). Inhibition studies were carried out by incubation of specific substrates in the presence of sesquiterpenes (in the range 0–100 µM).
(§2) The assays of all other enzymes were based on spectrophotometric detection of product formed or detection of decreasing substrate/cofactor levels using microplate reader Tecan Infinite M200 in cytosolic or microsomal fractions. Enzyme activities were determined using slight modifications of previously-published methods: carbonyl reducing enzymes (AKR1A, AKR1C, CBR1 [45], NQO1 [46]), UDP-glucuronosyltransferase (UGT [47]), sulfotransferase (SULT [48]), and cytosolic glutathione-S-transferase (GST [49]).
(§3) Sesquiterpenes CNER, TNER and FAR, non-volatile liquids, were pipetted, and proper concentration was calculated according to density. All compounds were dissolved in DMSO. The final solvent concentration in the inhibition assays was 1%, which had no effect on the enzyme activity (data not shown). Non-enzymatic interference of sesquiterpenes with some compounds in the reaction mixtures (e.g., fluorescence enhancing or quenching) was considered and excluded. All experiments were performed in three replicates, if not stated otherwise.
(§4) CNER, TNER and FAR at a fixed concentration of 100 µM were screened for inhibition of cytosolic AKR1A1, AKR1C, CBR1, NQO1, SULT, and GST, and microsomal CYPs and UGT. The degree of inhibition caused by sesquiterpenes was compared with non-inhibited control reactions, which contained solvent without sesquiterpenes.

AKR1A [2] = biological target: T2, AKR1A (Rattus norvegicus, UniProt P51635); experiment: AKR1A activity in rat liver subcellular fraction; conditions: 100 µM sesquiterpene, control 3.60 ± 0.13
T2 construct: Frozen liver (both rat and human) was thawed; from tissue; host or cells: rat liver cytosolic fraction
T2 sequence (P51635 1-325): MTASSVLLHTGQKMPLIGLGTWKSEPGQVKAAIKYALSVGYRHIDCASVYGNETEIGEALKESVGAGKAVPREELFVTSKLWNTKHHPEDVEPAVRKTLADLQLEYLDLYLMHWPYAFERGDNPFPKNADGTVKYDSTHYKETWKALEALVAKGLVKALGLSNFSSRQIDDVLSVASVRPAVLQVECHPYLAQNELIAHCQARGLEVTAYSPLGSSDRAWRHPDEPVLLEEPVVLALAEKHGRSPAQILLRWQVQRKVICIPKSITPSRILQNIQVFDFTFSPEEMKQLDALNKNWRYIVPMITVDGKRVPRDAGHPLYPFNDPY
Experimental: as §1, §2, §3, §4

UGT = UGT activity in human liver subcellular fraction; conditions: 100 µM sesquiterpene, control 7.12 ± 0.35
Experimental: as §1, §2, §3, §4

CYP1A2 = biological target: T3, CYP1A2 (Rattus norvegicus, UniProt P04799); experiment: CYP1A2 (EROD activity, 7-ethoxyresorufin O-deethylation) in rat liver microsomes; conditions: for Specific Activity, CYP1A2 (EROD activity): in the presence of 100 µM sesquiterpene, control 22.8 ± 0.1
T3 construct: Frozen liver (both rat and human) was thawed; from tissue; host or cells: rat liver microsomal fraction
T3 sequence (P04799 1-513): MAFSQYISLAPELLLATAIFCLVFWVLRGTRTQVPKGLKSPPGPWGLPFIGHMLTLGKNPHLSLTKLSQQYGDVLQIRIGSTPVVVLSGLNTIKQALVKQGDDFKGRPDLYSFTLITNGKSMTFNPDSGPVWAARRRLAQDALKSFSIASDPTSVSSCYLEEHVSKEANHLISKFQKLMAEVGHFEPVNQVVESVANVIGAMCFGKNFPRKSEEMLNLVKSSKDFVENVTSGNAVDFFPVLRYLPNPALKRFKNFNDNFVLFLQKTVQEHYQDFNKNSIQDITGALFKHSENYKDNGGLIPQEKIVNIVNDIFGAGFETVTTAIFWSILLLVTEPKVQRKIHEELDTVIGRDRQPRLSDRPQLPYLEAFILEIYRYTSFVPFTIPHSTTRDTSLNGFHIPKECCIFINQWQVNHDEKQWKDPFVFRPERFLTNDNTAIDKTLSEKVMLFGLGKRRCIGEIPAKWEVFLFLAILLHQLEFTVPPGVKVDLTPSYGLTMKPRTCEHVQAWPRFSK
Experimental: as §1
Enzyme activities of individual CYP forms were measured according to established protocols. The following microsomal CYP activities were tested: CYP2A6, coumarin 7-hydroxylation; CYP2B6, 7-ethoxy-4-(trifluoromethyl)coumarin 7-deethylation, CYP2C9, diclofenac 4′-hydroxylation, CYP2C19 assay, S-mephenytoin 4′-hydroxylation, CYP2D6 on bufuralol 1′-hydroxylation, CYP2E1, chlorzoxazone 6-hydroxylation and CYP3A4, testosterone 6β-hydroxylation, and midazolam 1′-hydroxylation. Activities were measured using the Prominence HPLC system (Shimadzu, Kyoto, Japan), equipped with a LiChroCART 250-4 LiChrospher 100 RP-18 column or Chromolith®HighResolution RP-18 end-capped column (Merck, Darmstadt, Germany) and UV or fluorescence detection, according to the cited literature. Further incubation details are described either in the corresponding references, as well as in the papers from this laboratory e.g., [42, 43, 44]. CYP1A2, 7-ethoxyresorufin O-deethylation, and CYP3A4/2B6 (human), CYP2B1 (rat), benzyloxyresorufin O-debenzylation were measured using the microplate reader Tecan Infinite M200 (Tecan Group; Mannedorf, Switzerland).
as §3, §4
The concentration of sesquiterpenes required for 50% inhibition of enzyme activity, the IC50 value, was determined. Their final concentrations in the reaction mixture were proposed to cover the entire inhibitory range of these compounds (1–100 µM). The IC50 values for each sesquiterpene were determined by plotting sigmoidal dose response curves of specific enzyme activity vs. logarithm of sesquiterpene concentration using GraphPad Prism version 6.07 for Windows (GraphPad Software Inc., La Jolla, CA, USA).
The kinetic inactivation study of the CYP1A2 (EROD activity) and CYP2B/3A (BROD activity), both in rat and human, with TNER, was performed to find out the mechanism of enzyme inhibition by this sesquiterpene. Mechanism of EROD and BROD inhibition was tested at the final ethoxyresorufin or benzyloxyresorufin concentrations 0.5–5.0 µM. The concentration of TNER was 5.0 µM.
Experimental data were fitted to the Michaelis-Menten equation, basic kinetic parameters were determined using the program GraphPad Prism version 6.07 for Windows. The type of inhibition was estimated using a Lineweaver-Burk (double-reciprocal) plot.

Row | Compound | Specific activity, AKR1A (AKR1A [1]) [nmol/mg/min] | Specific activity, AKR1A (AKR1A [2]) [nmol/mg/min] | Specific activity, UGT (UGT) [nmol/mg/min] | IC50 (CYP1A2; rat liver microsomes) [µM] | Specific Activity, CYP1A2 (EROD activity) (CYP1A2; rat liver microsomes) [pmol/mg/min] | Ki (CYP1A2; rat liver microsomes, EROD activity) [µM] | K’M (CYP1A2; rat liver microsomes, ethoxyresorufin 0.5–5.0 µM in the presence of TNER 5 µM, KM without TNER 1.64 ± 0.45) [µM] | V’MAX (CYP1A2; rat liver microsomes, ethoxyresorufin 0.5–5.0 µM in the presence of TNER 5 µM, VMAX without TNER 4.32 ± 0.47) [nM/min] | type of inhibition, CYP1A2 (EROD) (CYP1A2; rat microsomes, 5 µM TNER, ethoxyresorufin 0.5–5.0 µM)
1 | C=CC(C)(O)CC/C=C(/C)CCC=C(C)C (stereo not drawn) [CNER, cis-nerolidol] | 6.88 ± 0.29 | 3.86 ± 0.47 | 7.09 ± 0.34 | 5.7 | 2.16 ± 0.04 | – | – | – | –
2 | CC(C)=CCC/C(C)=C/CC/C(C)=C/CO [FAR, farnesol] | 7.62 ± 0.30 | 3.48 ± 0.32 | 7.49 ± 1.08 | 16.1 | 1.55 ± 0.02 | – | – | – | –
3 | C=CC(C)(O)CC/C=C(\C)CCC=C(C)C (stereo not drawn) [TNER, trans-nerolidol] | 6.75 ± 0.22 | 3.71 ± 0.56 | 7.08 ± 0.39 | 4.38 | 1.53 ± 0.03 | 4.68 ± 0.66 | 1.89 ± 0.49 | 2.21 ± 0.24 | non-competitive
